{"source": "patent US9840481B2", "about": "“Allosteric modulators of nicotinic acetylcholine receptors” (MERCK SHARP & DOHME CORP., priority 2016, dated 2017)", "target": "T1, human α7 nAChR stably expressed in a HEK cell line (with human RIC-3) (Homo sapiens, UniProt P36544)", "T1 construct": "PrecisION hnAChR α7/RIC-3", "T1 sequence (P36544 23-502)": "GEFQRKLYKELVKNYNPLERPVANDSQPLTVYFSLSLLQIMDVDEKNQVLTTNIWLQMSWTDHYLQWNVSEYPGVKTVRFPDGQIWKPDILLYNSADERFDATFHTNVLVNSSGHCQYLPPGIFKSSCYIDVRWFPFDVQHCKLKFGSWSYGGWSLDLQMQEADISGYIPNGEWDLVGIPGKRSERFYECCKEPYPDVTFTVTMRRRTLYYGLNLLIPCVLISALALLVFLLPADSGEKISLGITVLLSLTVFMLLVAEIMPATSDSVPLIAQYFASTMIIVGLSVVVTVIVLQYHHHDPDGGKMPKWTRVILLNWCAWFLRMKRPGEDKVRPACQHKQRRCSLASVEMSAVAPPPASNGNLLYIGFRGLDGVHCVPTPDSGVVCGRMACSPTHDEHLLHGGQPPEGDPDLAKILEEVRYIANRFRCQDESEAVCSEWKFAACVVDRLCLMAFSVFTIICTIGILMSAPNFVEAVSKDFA", "assay": "Automated patch-clamp electrophysiology functional assay (Assay A), IonFlux HT, whole-cell population patch", "format": "cell-based", "settings": "automated patch-clamp electrophysiology functional assay (Assay A); potency class by EC50; read-out: α7 nAChR Potency", "how_it_was_run": "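Whole-cell population patch clamp (IonFlux HT) used HEK cells stably co-expressing human α7 and RIC-3, held at −60 mV at room temperature. Compounds were applied alone (agonism) or with 40 μM acetylcholine (potentiation), three ascending concentrations per recording. Currents were quantified relative to a 40 μM acetylcholine reference response, giving EC50.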", "data": [{"smiles": "COc1ccc(Cl)cc1-c1noc(C2C(c3ccc(S(N)(=O)=O)cc3)C2(F)F)n1", "note": "(stereo not shown) [Example E2]", "values": [{"measurement": "EC50", "value": "500 to 5000", "unit": "nM"}]}]}
